Reference: patent publication US20260062422A1 (Halda Therapeutics OpCo, Inc., priority 2022, published 2026)

Experiments:
[1] = biological target: T1, progesterone receptor ligand binding domain (LBD) (Homo sapiens, UniProt P06401); assay: FP assay (PolarScreen Progesterone Receptor Competitor Assay) for binding to progesterone receptor LBD; conditions: GST-tagged PR LBD, Fluormone tracer, fluorescence polarization, 2 hours; Table 17
T1 construct: GST-tagged PR LBD, Fluormone tracer, and compound were mixed; purchased Life Technologies A15905 or a15906
T1 sequence (P06401 679-913 limits assumed): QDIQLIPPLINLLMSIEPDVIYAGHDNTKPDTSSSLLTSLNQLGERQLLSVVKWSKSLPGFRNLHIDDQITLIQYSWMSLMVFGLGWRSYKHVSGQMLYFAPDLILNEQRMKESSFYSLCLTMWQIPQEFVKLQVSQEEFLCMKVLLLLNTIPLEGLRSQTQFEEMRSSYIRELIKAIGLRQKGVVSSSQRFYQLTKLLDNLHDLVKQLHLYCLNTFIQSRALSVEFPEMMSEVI
Method: Compounds were tested using the PolarScreen™ Progesterone Receptor Competitor Assay Kit (Life Technologies Cat #A15905 or a15906), as per the manufacturer's instructions. Briefly, GST-tagged PR LBD, Fluormone tracer, and compound were mixed and incubated for 2 hours at room temperature in the dark. Following incubation, the plates were spun at 3000×g for 30 seconds, then sealed with an optical adhesive cover, and fluorescence polarization was measured using appropriate excitation and emission filters with an EnVision Plate Reader (Perkin Elmer). Compound concentration vs. mP value were plotted in Prism (GraphPad). A four-parameter non-linear regression curve fit was applied to dose-response data to determine the half-maximal inhibitory concentration (IC50) for each test compound.

[2] = Cellular growth inhibition, T-Rex 293 SC cells with doxycycline (progesterone receptor isoform B induced), Example 47; format: cell-based; conditions: progesterone receptor isoform B induced with 10 ng/mL doxycycline, 72 hours, CellTiter-Glo 2.0, Table 14 (Example 47)
Method: (§1) The following types of cells were prepared for this experiment: (i) a T-Rex 293 cell line having increased expression of progesterone receptor isoform B protein due to exposure to doxycycline and (ii) a T-Rex 293 cell line lacking increased expression of progesterone receptor isoform B protein. Ability of the test compounds to inhibit proliferation of the foregoing cell types was evaluated according to the procedures set forth below.
(§2) The doxycycline-inducible progesterone receptor isoform B protein expressing cell line was established using the following protocol: T-Rex 293 cells were purchased from Invitrogen (Cat #R71007) and transfected using Lipofectamine 2000 with the wild-type progesterone receptor B protein sequence cloned into the pcDNA4/TO vector. Transfected cells were selected using 400 μg/mL Zeocin (Invitrogen Cat #R25001). Following selection, single clones were raised and maintained in Dulbecco's Modified Eagle Medium (DMEM) supplemented with 10% w/w Tetracycline-free fetal bovine serum (FBS) and 250 μg/mL Zeocin. Clones were analyzed for expression of progesterone receptor isoform B protein in the presence and absence of 10 ng/mL doxycycline (Sigma Cat #D9891), and a single doxycycline-inducible clone (hereinafter “SC”) was selected for use in downstream assays.
(§3) The SC cells were seeded on poly-D-lysine coated, black clear-bottom 384-well plates at 2500/well, in 25 μL Phenol Red Free Dulbecco's Modified Eagle Medium (DMEM) supplemented with 10% w/w charcoal-dextran treated fetal bovine serum (FBS) and 1% w/w pen-strep, with or without 10 ng/mL doxycycline. Pen-Strep is a commercially available mixture of penicillin G and streptomycin, which is used in mammalian cell culture media to prevent bacterial contamination. Phenol Red Free Dulbecco's Modified Eagle Medium (DMEM) supplemented with 10% w/w charcoal-dextran treated fetal bovine serum (FBS) and 1% w/w pen-strep, with or without 10 ng/mL doxycycline is herein referred to as Treatment Medium. Following seeding of cells in the plates, the plates were spun at 300×g for 30 seconds, then equilibrated to room temperature for 30 minutes, and then deposited in a humidified tissue culture incubator maintained at 37° C. with 5% CO2.
(§4) At 24 hours after seeding of the cells, dilutions of test compound were prepared in DMSO and dissolved in Treatment Medium, to achieve a final DMSO concentration of 0.5% w/w, thereby providing the Test Compound Solution. A 25 μL aliquot of the Test Compound Solution was added to cells in the well plates. An equal volume of a solution containing DMSO and Treatment Medium was used as a negative control. Following treatment of cells with Test Compound Solution or said equal volume of a solution containing DMSO and Treatment Medium, the plates were spun at 300×g for 30 seconds, and then left in an incubator for 72 hours.
(§5) At the end of the treatment duration, cell viability was quantified with CellTiter-Glo 2.0 reagent (Promega Cat #G9243). For this purpose, plates were equilibrated to room temperature for 30 minutes, and then 25 μL of CellTiter-Glo 2.0 reagent was added to cells in the plate wells. Plates were then agitated on a shaker for two minutes at 500 rpm and subsequently incubated at room temperature for 10 minutes. Following incubation, the plates were spun at 3000×g for 30 seconds, then sealed with an optical adhesive cover, and luminescence readings were measured with an EnVision Plate Reader (Perkin Elmer).
(§6) Data was normalized using zero luminescence for baseline. A four-parameter non-linear regression curve fit was applied to dose-response data in GraphPad Prism data analysis software to determine the half-maximal growth inhibitory concentration (GI50) for each test compound.

[3] = system: T-Rex 293 cell line SC cells lacking increased expression of progesterone receptor isoform B protein; assay: Cellular growth inhibition, T-Rex 293 SC cells without doxycycline, Example 47; format: cell-based; conditions: T-Rex 293 SC cells not exposed to doxycycline, 72 hours, CellTiter-Glo 2.0; Table 15 (Example 47)
Method: as §1, §2, §3, §4, §5, §6

IC50 [1] [nM]	Compound	GI50 [2] [nM]	GI50 [3] [nM]
< 50	CCNC(=O)C[C@@H]1N=C(c2ccc(N(C)C3CC(OC4CCN(c5ncc(C(=O)N[C@H]6C(C)(C)[C@H](Oc7ccc(C#N)c(Cl)c7)C6(C)C)cn5)CC4)C3)cc2)c2c(sc(C)c2C)-n2c(C)nnc21 (some centres unmarked) [Compound I-130]	–	–
–	Cc1sc2c(c1C)C(c1ccc(Cl)cc1)=N[C@H](CC(=O)NCCOCCOCCOCCOCCN(C)c1ncc(C(=O)N[C@H]3C(C)(C)[C@H](Oc4ccc(C#N)c(Cl)c4)C3(C)C)cn1)c1nnc(C)n1-2 [Compound I-19]	500 to 1500	1500 to 3000
–	Cc1sc2c(c1C)C(c1ccc(Cl)cc1)=N[C@@H](CC(=O)NCCOC1CCN(c3ncc(C(=O)N[C@H]4C(C)(C)[C@H](Oc5ccc(C#N)c(Cl)c5)C4(C)C)cn3)CC1)c1nnc(C)n1-2 [Compound I-6]	< 500	< 500
–	Cc1sc2c(c1C)C(c1ccc(Cl)cc1)=N[C@@H](CC(=O)NCCOCCOCCOCCOCCOC1CCN(c3ncc(C(=O)N[C@H]4C(C)(C)[C@H](Oc5ccc(C#N)c(Cl)c5)C4(C)C)cn3)CC1)c1nnc(C)n1-2 [Compound I-8]	< 500	500 to 1500
–	Cc1sc2c(c1C)C(c1ccc(Cl)cc1)=N[C@@H](CC(=O)NCCOCCOCCOCCOCCN(C)c1ncc(C(=O)N[C@H]3C(C)(C)[C@H](Oc4ccc(C#N)c(Cl)c4)C3(C)C)cn1)c1nnc(C)n1-2 [Compound I-3, N-((1r,3r)-3-(3-chloro-4-cyanophenoxy)-2,2,4,4-tetramethylcyclobutyl)-2-((1-((S)-4-(4-chlorophenyl)-2,3,9-trimethyl-6H-thieno[3,2-f][1,2,4]triazolo[4,3-a][1,4]diazepin-6-yl)-2-oxo-6,9,12,15-tetraoxa-3-azaheptadecan-17-yl)(methyl)amino)pyrimidine-5-carboxamide]	< 500	1500 to 3000
50 to 500	Cc1sc2c(c1C)C(c1ccc(OC3CC4(CCN(c5ncc(C(=O)N[C@H]6C(C)(C)[C@H](Oc7ccc(C#N)c(Cl)c7)C6(C)C)cn5)CC4)C3)cc1)=NC(Cc1ncco1)c1nnc(C)n1-2 (some centres unmarked) [Compound I-166]	–	–
–	Cc1sc2c(c1C)C(c1ccc(Cl)cc1)=N[C@@H](CC(=O)NCCCCCOC1CCN(c3ncc(C(=O)N[C@H]4C(C)(C)[C@H](Oc5ccc(C#N)c(Cl)c5)C4(C)C)cn3)CC1)c1nnc(C)n1-2 [Compound I-22, N-((1r,3r)-3-(3-chloro-4-cyanophenoxy)-2,2,4,4-tetramethylcyclobutyl)-2-(4-((5-(2-((S)-4-(4-chlorophenyl)-2,3,9-trimethyl-6H-thieno[3,2-A][1,2,4]triazolo[4,3-a][1,4]diazepin-6-yl)acetamido)pentyl)oxy)piperidin-1-yl)pyrimidine-5-carboxamide]	–	> 3000
–	Cc1sc2c(c1C)C(c1ccc(Cl)cc1)=N[C@@H](CC(=O)NCCOCCOCCOCCOC1CCN(c3ncc(C(=O)N[C@H]4C(C)(C)[C@H](Oc5ccc(C#N)c(Cl)c5)C4(C)C)cn3)CC1)c1nnc(C)n1-2 [Compound I-11]	< 500	< 500
–	CCNC(=O)C[C@@H]1N=C(c2cccc(OCCOCCOCCOC3CCN(c4ncc(C(=O)N[C@H]5C(C)(C)[C@H](Oc6ccc(C#N)c(Cl)c6)C5(C)C)cn4)CC3)c2)c2c(sc(C)c2C)-n2c(C)nnc21 [Compound I-48, N-((1r,3r)-3-(3-chloro-4-cyanophenoxy)-2,2,4,4-tetramethylcyclobutyl)-2-(4-(2-(2-(2-(3-((S)-6-(2-(ethylamino)-2-oxoethyl)-2,3,9-trimethyl-6H-thieno[3,2-f][1,2,4]triazolo[4,3-a][1,4]diazepin-4-yl)phenoxy)ethoxy)ethoxy)ethoxy)piperidin-1-yl)pyrimidine-5-carboxamide]	–	> 3000
–	Cc1sc2c(c1C)C(c1ccc(Cl)cc1)=N[C@H](CC(=O)NCCOCCOCCOCCOCCOC1CCN(c3ncc(C(=O)N[C@H]4C(C)(C)[C@H](Oc5ccc(C#N)c(Cl)c5)C4(C)C)cn3)CC1)c1nnc(C)n1-2 [Compound I-14]	< 500	1500 to 3000
50 to 500	CCNC(=O)C[C@@H]1N=C(c2ccc(N3CCN(CC4CCN(c5ncc(C(=O)N[C@H]6C(C)(C)[C@H](Oc7ccc(C#N)c(Cl)c7)C6(C)C)cn5)CC4)CC3)cc2)c2c(sc(C)c2C)-n2c(C)nnc21 [Compound I-105, N-[3-(3-chloro-4-cyano-phenoxy)-2,2,4,4-tetramethyl-cyclobutyl]-2-[4-[[4-[4-[(9S)-9-[2-(ethylamino)-2-oxo-ethyl]-4,5,13-trimethyl-3-thia-1,8,11,12-tetrazatricyclo[8.3.0.02,6]trideca-2(6),4,7,10,12-pentaen-7-yl]phenyl]piperazin-1-yl]methyl]-1-piperidyl]pyrimidine-5-carboxamide]	–	–
< 50	CCNC(=O)C[C@@H]1N=C(c2ccc(N(C3CC3)C3CN(CC4CCN(c5ncc(C(=O)N[C@H]6C(C)(C)[C@H](Oc7ccc(C#N)c(Cl)c7)C6(C)C)cn5)CC4)C3)cc2)c2c(sc(C)c2C)-n2c(C)nnc21 [Compound I-129]	–	–
–	Cc1sc2c(c1C)C(c1ccc(Cl)cc1)=N[C@H](CC(=O)NCCOCCOCCOCCOC1CCN(c3ncc(C(=O)N[C@H]4C(C)(C)[C@H](Oc5ccc(C#N)c(Cl)c5)C4(C)C)cn3)CC1)c1nnc(C)n1-2 [Compound I-13]	< 500	1500 to 3000
–	Cc1sc2c(c1C)C(c1ccc(OC3CC4(CCN(c5ncc(C(=O)N[C@H]6C(C)(C)[C@H](Oc7ccc(C#N)c(Cl)c7)C6(C)C)cn5)CC4)C3)cc1)=N[C@@H](Cc1ncco1)c1nnc(C)n1-2 [Compound I-49, N-[3-(3-chloro-4-cyano-phenoxy)-2,2,4,4-tetramethyl-cyclobutyl]-2-[2-[4-[(9S)-4,5,13-trimethyl-9-(oxazol-2-ylmethyl)-3-thia-1,8,11,12-tetrazatricyclo[8.3.0.02,6]trideca-2(6),4,7,10,12-pentaen-7-yl]phenoxy]-7-azaspiro[3.5]nonan-7-yl]pyrimidine-5-carboxamide]	< 500	500 to 1500
–	Cc1sc2c(c1C)C(c1ccc(Cl)cc1)=N[C@@H](CC(=O)NCCOCCOCCOCCOCCOCCOCCN(C)c1ncc(C(=O)N[C@H]3C(C)(C)[C@H](Oc4ccc(C#N)c(Cl)c4)C3(C)C)cn1)c1nnc(C)n1-2 [Compound I-4]	< 500	1500 to 3000
–	Cc1sc2c(c1C)C(c1ccc(Cl)cc1)=N[C@@H](CC(=O)NCCOCCOCCOCC1CCN(c3ncc(C(=O)N[C@H]4C(C)(C)[C@H](Oc5ccc(C#N)c(Cl)c5)C4(C)C)cn3)CC1)c1nnc(C)n1-2 [Compound I-17]	500 to 1500	> 3000
